This data set has as its target CYP3A4 (Homo sapiens, UniProt P08684). The data set is described as follows: inhibition of testosterone metabolism in Caco-2/TC7 cells (HPLC).

Structures are written as SMILES.

Chain of CYP3A4 (P08684 2-503): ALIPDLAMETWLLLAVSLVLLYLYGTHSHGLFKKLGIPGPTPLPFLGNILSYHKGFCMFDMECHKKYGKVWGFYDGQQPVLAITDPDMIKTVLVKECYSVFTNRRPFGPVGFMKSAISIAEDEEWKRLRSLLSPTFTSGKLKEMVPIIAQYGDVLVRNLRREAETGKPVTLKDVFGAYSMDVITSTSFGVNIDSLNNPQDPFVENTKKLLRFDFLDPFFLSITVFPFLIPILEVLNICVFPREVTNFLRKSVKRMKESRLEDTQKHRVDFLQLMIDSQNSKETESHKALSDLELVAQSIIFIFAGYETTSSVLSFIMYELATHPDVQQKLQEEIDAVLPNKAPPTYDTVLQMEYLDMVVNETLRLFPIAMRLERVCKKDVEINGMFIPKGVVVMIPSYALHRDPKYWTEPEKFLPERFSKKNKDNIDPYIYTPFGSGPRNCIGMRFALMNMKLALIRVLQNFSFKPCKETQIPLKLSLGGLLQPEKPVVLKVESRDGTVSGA

As a reminder, the IC50 is the concentration that gives 50% inhibition. In turn, `Oc1ccc(/C=C/c2cc(O)cc(O)c2)cc1` [Resveratrol, trans-3,4′,5-trihydroxystilbene] registered an IC50 of less than 10 µM.

These data come from paper PMC4618141, “Use of In Vitro and Predictive In Silico Models to Study the Inhibition of Cytochrome P4503A by Stilbenes” (PLoS ONE, 2015).
